The values that follow are results of earlier work, collected in patent US9849144B2 (Healios Oncology Nutrition, LLC, priority 2013, dated 2017).

For data set [1] the following is noted: in vivo.
In data set [2] the test system is CaCo-2 cells. The following applies: glucose containing disaccharides.

In the case of `NC(=O)CC[C@H](N)C(=O)O` [Glutamine, L-glutamine], the “daily dose with no safety or toxicity concerns” value in data set [1] is reported as “up to 40 grams a day”.
For the compound `OC[C@H]1O[C@H](O[C@H]2O[C@H](CO)[C@@H](O)[C@H](O)[C@H]2O)[C@H](O)[C@@H](O)[C@@H]1O` [trehalose, α-D-glucopyranosyl-1,1-α-D-glucopyranoside], the “relative humidity up to which crystalline form is stable and remains free flowing” value is reported as “up to 94 % relative humidity”. The “increase of GLN uptake” value in data set [2] is given as “a thousand fold”.
